Reference: US20090326032A1, “PHARMACEUTICAL COMPOSITIONS COMPRISING NK1 RECEPTOR ANTAGONISTS AND SODIUM CHANNEL BLOCKERS” (GLAXO GROUP LIMITED, priority 2007, published 2009)
Structures can show the parent of a compound that is named as a salt. Where two headings read alike, the source gives them in different places.

Tests used:
[1] = test system: tonic hindlimb extensor seizures; assay: threshold for tonic hindlimb extensor seizures, corneal electroshock, 'up and down' method (CC50); type: in vivo, rat; conditions: ENa7 3 mg/kg s.c. alone, male CD rats
Description: This work was conducted in compliance with the Home Office Guidance on the operation of the Animals (Scientific Procedures) Act 1986 and GlaxoSmithKline ethical standards. Male CD rats (100-145 g) were supplied by Charles River, UK. Animals were group housed (6 animal per cage) with free access to food (Standard rodent chow; Harlan, UK) and water under a 12 h light/dark cycle (lights on at 0700 h). A period of at least one week between arrival at GSK and the study was allowed in all cases.
Animals were administered a test compound at the appropriate dose, route and pre-treatment time and returned to their home cage. Testing occurred in a separate room from that used for housing. […] Seizure threshold was determined using the ‘up and down’ method of Kimball et al. (1957)(Kimball A W, Burnett W T Jr, Doherty D G. (1957) Radiat Res. 7(1):1-12). […]
All doses were calculated as base. […]
Induction of seizure is measured as an all-or-nothing effect scored as either present (+) or absent (0) for each animal. […] Drug effects were calculated as the % change in CC50. Significant differences between drug-treated animals and appropriate vehicle treated groups were assessed according to the methods of Litchfield and Wilcoxon (1949). […]

[2] = blood and brain drug concentrations in satellite animals; type: in vivo, rat; conditions: for concentration at 60 min: CD, rat, intraperitoneal

| Compound | seizure threshold [1] | concentration of ENa7 in the presence of the NK1 antagonist ([2]; blood and brain, with vs without ENK6 30 mg/kg) | concentration at 60 min ([2]; blood, 30 mg/kg, ENK6 30 mg/kg, ENa7 veh, n = 1, read-out: Blood ENK6) [ng/mL] | concentration at 60 min ([2]; blood, ENK6 30 mg/kg + ENa7 1 mg/kg, n = 2, read-out: Blood ENK6) [ng/mL] | concentration at 60 min ([2]; blood, ENK6 30 mg/kg + ENa7 3 mg/kg, n = 2, read-out: Blood ENK6) [ng/mL] | concentration at 60 min ([2]; brain, 30 mg/kg, ENK6 30 mg/kg, ENa7 veh, n = 1, read-out: Brain ENK6) [ng/g] | concentration at 60 min ([2]; brain, ENK6 30 mg/kg + ENa7 1 mg/kg, n = 2, read-out: Brain ENK6) [ng/g] | concentration at 60 min ([2]; brain, ENK6 30 mg/kg + ENa7 3 mg/kg, n = 2, read-out: Brain ENK6) [ng/g] |
| --- | --- | --- | --- | --- | --- | --- | --- | --- |
| CN1CC[C@]2(CC[C@H](c3ccc(OCc4ccccc4F)cc3)N2)C1=O.Cl [ENa7, (2R,5R)-2-(4-{[(2-Fluorophenyl)methyl]oxy}phenyl)-7-methyl-1,7-diazaspiro[4.4]nonan-6-one hydrochloride] | robust and significant increase | No increase | – | – | – | – | – | – |
| COc1ccc(-n2nnnc2C(F)(F)F)cc1CN[C@H]1CCCN[C@H]1c1ccccc1 [ENK6, [2-Methoxy-5-(5-trifluoromethyl-tetrazol-1-yl)-benzyl]-([2S,3S]-2-phenyl-piperidin-3-yl)-amine dihydrochloride] | – | – | 558 | 456 | 1210 | 1260 | 1040 | 4800 |
